Measured values reported in US9902709B2, “Polysubstituted pyridine compound, preparation method, use and pharmaceutical composition” (PEKING UNIVERSITY FOUNDER GROUP CO., LTD., priority 2014, dated 2018).
Values belong to the molecule of their own block, whether it stands above or below them.

Key:
[1] = tested on: human renal cancer 786-O transplantation; test: Effect on tumor weight of human renal cancer 786-O transplantation nude mice (Comparative Experimental Example 1); type: in vivo; conditions: QD × 14 days
Source text: Comparative Experimental Example 1
The well grown 786-O solid tumor was cut into a mass of an average volume of about 1 mm^3 under aseptic conditions, and was used to inoculate nude mouse at axillary cavity of right forelimb subcutaneously via a trocar. The tumor growth state was observed regularly until the tumor grew into a volume of 250˜550 mm^3.
(§1) Animals with tumors of a too large or too small volume and an irregular shape were discarded. Tumor-bearing mice with a tumor volume of 250˜550 mm^3 in a good state were selected, 48 mice in total, and were divided into 6 groups, which were 1 solvent control group, 3 positive control groups, and 2 test sample groups. Both the positive control group and the test sample group were administered intragastrically once a day; the solvent control group was administered with 12.5% ethanol & 12.5% water solution of polyoxyethylene castor oil once a day; intragastrical volume was 10 mL/kg.
(§2) In the period of administration, tumor diameter was measured twice every week, tumor volume was calculated, and animal body weight was recorded. Animal state was observed when administered, and abnormal state was recorded.
Animal was sacrificed with CO2, and tumor was peeled off, weighed, and photographed. Animal was subjected to gross anatomy, and organs were observed by eyes to find if they were normal or not.
(§3) Observation Indexes: Tumor weight inhibiting rate (IR)=(WC−WT)/WC
Wherein WC and WT represented the average tumor weight of solvent control group and the average tumor weight of drug administration group, respectively.
Experimental data was subjected to calculation and relevant statistic processing by Microsoft Office Excel 2003 software. Unless otherwise specified, data was represented as Mean±Standard Error (Mean±S.E), and t-test is used in the comparison between two groups.

VEGFR2 = VEGFR2 (Homo sapiens (Human), UniProt P35968); test: Inhibitory activity of VEGFR2 kinase (HTRF KinEASE-TK kit); type: biochemical; conditions: for IC50: ATP 5 μM, 20 minutes, room temperature; for IC50 value as fold of that of Comparative compound 2 / IC50 value as fold of that of Sorafenib (free base): ratio of IC50
Sequence of VEGFR2 (P35968 20-1356): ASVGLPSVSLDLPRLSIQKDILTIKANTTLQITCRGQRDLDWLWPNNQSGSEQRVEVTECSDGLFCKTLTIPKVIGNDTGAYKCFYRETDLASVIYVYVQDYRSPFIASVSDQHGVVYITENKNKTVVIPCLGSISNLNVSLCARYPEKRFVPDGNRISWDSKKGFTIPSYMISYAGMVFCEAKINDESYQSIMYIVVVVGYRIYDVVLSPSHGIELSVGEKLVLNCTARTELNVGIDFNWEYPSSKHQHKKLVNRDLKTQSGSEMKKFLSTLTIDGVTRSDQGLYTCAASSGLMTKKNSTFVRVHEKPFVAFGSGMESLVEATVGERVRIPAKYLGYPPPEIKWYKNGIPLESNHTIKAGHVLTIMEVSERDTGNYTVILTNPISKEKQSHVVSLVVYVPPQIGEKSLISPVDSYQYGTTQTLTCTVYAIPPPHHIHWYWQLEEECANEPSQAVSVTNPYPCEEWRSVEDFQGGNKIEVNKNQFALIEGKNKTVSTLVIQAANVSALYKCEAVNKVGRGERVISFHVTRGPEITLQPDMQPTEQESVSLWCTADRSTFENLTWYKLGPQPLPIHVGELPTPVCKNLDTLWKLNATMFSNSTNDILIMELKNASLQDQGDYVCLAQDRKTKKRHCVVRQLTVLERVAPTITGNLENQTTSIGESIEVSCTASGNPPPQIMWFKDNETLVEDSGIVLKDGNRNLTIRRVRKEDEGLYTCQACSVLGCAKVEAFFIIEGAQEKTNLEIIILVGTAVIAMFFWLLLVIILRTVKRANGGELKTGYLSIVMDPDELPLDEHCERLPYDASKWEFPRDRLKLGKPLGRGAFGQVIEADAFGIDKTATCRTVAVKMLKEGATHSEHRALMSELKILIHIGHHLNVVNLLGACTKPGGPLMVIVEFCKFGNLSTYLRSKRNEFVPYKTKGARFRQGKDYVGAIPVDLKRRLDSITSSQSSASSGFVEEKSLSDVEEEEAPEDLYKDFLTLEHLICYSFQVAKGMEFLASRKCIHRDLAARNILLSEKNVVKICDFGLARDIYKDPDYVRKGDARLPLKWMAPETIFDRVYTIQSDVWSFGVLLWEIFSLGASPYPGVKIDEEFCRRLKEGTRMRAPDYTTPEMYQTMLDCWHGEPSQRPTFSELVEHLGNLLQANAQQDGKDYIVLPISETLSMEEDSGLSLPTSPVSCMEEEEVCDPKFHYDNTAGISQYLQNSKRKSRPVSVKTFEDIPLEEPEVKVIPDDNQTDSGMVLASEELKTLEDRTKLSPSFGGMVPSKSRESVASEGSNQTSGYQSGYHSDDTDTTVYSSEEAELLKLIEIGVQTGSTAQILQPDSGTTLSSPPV
Description: HTRF®KinEASE™-TK kit (Cat.62TKOPEC, Cisbio);
VEGFR2 (Cat: k2643, Sigma);
2.1 Preparation of VEGFR2 Kinase Reagent
1× kinase buffer: 1 mL 1× kinase buffer contained 200 μL 5× kinase buffer (Invitrogen), 5 μL, 1M MgCl2, 1 μL 1M DTT, 1 μL 1M MnCl2, and 793 μL ddH2O;
5×TK substrate-biotin and ATP working fluid: as the concentrations of TK substrate-biotin and ATP, please refer to Table 1. TK substrate-biotin and ATP were diluted with 1× kinase buffer to 5 folds of the reaction concentrations;
5× kinase working fluid: as the concentration of VEGFR2 kinase, please refer to Table 1. 5× kinase working fluid was prepared with 1× Kinase buffer;
4× Sa-XL665 working fluid: as the concentration of Sa-XL665 (Cisbio) in the reaction, please refer to Table 1. The 4× Sa-XL665 working fluid was prepared with assay buffer (Cisbio);
4×TK Ab-cryptate working fluid: TK Ab-Cryptate (Cisbio) was 100-fold diluted with assay buffer (Cisbio), as working fluid;
Experimental Procedure of HTRF KinEASE TK Kit
After all the reagents were prepared as described above, the reagents except for enzymes were equilibrated to room temperature, then adding samples were performed.
TK substrate-biotin, ATP, VEGFR2 kinase and a compound at a certain concentration were reacted in 1× kinase buffer at room temperature for 20 minutes. […] To all the reaction wells, 5 μl 4× Sa-XL665 working fluid and 5 μl 4×TK Ab-cryptate working fluid were added. After reacting at room temperature for 1 hours, fluorescence signal (excited at 320 nm, emitted at 665 nm, 615 nm) was detected by ENVISION detector (Perkinelmer). Based on the full-active well and the background signal well, the inhibition rate for each well was calculated, and the average value was used for duplicate wells. The half maximal inhibitory concentration (IC50) for each test compound was fitted by professional software Graphpad PRISM 5.0.
2.3 Data Analysis Emission light ratio (ER)=665 nm emission signal/615 nm emission signal Inhibition rate=(ERpositive−ERsample)/(ERpositive−ERnegative)*100%
HTRF KinEASE TK kit was used to determine the IC50 value of a compound for kinase VEGFR2. The final concentration of the compound started from 100 μM, and 4-fold gradient dilution was carried out to provide 10 concentrations. Duplicate wells were used for each concentration. The final concentration of DMSO was controlled to 1% in the reaction system.

[2] = tested on: human colon cancer HCT-116 transplantation; test: Effect on tumor weight of human colon cancer HCT-116 transplantation nude mice (Comparative Experiment Example 2); type: in vivo; conditions: QD × 17 day
Source text: Comparative Experiment Example 2
Under aseptic conditions, the well grown human HCT-116 cell suspension in logarithmic growth phase was used to inoculate nude mouse at axillary cavity of right forelimb subcutaneously via an injector. The tumor growth state was observed regularly until the tumor grew to a volume of 100˜300 mm^3.
as §1, with “48” for “Animals with tumors of a too large or too small volume and an irregular shape were discarded.”, “100˜300” for “250˜550”, “mm^3” for “mm^3 in a good state”, “selected” for “selected, 48 mice in total,”, “and” for “and were”
as §2
Animal was sacrificed with CO2, and tumor mass was peeled off, weighed, and photographed. After photographed, each tumor mass was cut into two parts, wherein one was stored in 4% paraformaldehyde, and the other was packaged into a freezing tube, and frozen in liquid nitrogen. Animal was subjected to gross anatomy, and organs were observed by eyes to find if they were normal or not.
as §3
wherein WC and WT represented the average tumor weight of solvent control group and the average tumor weight of drug administration group, respectively.
Experimental data was subjected to calculation and relevant statistic processing by Microsoft Office Excel 2003 software. Unless otherwise specified, data was represented as Mean±Standard Error (Mean±S.E.), and t-test is used in the comparison between two groups.

Structure (SMILES): Cn1cc(-c2cc(Oc3ccc(NC(=O)Nc4ccc(Cl)c(C(F)(F)F)c4)cc3)ccn2)cn1 [Comparative example 2, 1-(4-chloro-3-(trifluoromethyl)phenyl)-3-(4-(2-(1-methyl-pyrazol-4-yl)-pyridin-4-yl-oxy)phenyl)urea]
Tumor weight Mean ± S.E ([1]; 20 mg/kg po, sorafenib as p-toluenesulfonate, FD-1210005 free form): 0.1892 ± 0.0253 g
Tumor-inhibiting rate ([1]; 20 mg/kg po, sorafenib as p-toluenesulfonate, FD-1210005 free form, listed as Comparative compound 2): 80%
Tumor-inhibiting rate ([1]; 20 mg/kg po, sorafenib as p-toluenesulfonate, FD-1210005 free form, listed as FD-1210005): 79.78%
Tumor weight Mean ± S.E ([1]; 60 mg/kg po, sorafenib as p-toluenesulfonate, FD-1210005 free form): 0.1897 ± 0.0192 g
Tumor-inhibiting rate ([1]; 60 mg/kg po, sorafenib as p-toluenesulfonate, FD-1210005 free form, listed as Comparative compound 2): 80%
Tumor-inhibiting rate ([1]; 60 mg/kg po, sorafenib as p-toluenesulfonate, FD-1210005 free form, listed as FD-1210005): 79.73%
IC50 (VEGFR2): 188 nM
Tumor weight Mean ± S.E ([2]; 20 mg/kg Ig, sorafenib as p-toluenesulfonate, FD-1210005 free form): 0.3283 ± 0.0404 g
Tumor-inhibiting rate ([2]; 20 mg/kg Ig, sorafenib as p-toluenesulfonate, FD-1210005 free form, listed as Comparative compound 2): 67%
Tumor-inhibiting rate ([2]; 20 mg/kg Ig, sorafenib as p-toluenesulfonate, FD-1210005 free form, listed as FD-1210005): 66.91%
Tumor weight Mean ± S.E ([2]; 60 mg/kg Ig, sorafenib as p-toluenesulfonate, FD-1210005 free form): 0.2829 ± 0.0309 g
Tumor-inhibiting rate ([2]; 60 mg/kg Ig, sorafenib as p-toluenesulfonate, FD-1210005 free form, listed as Comparative compound 2): 71%
Tumor-inhibiting rate ([2]; 60 mg/kg Ig, sorafenib as p-toluenesulfonate, FD-1210005 free form, listed as FD-1210005): 71.49%

Structure (SMILES): Cn1cc(-c2cc(Oc3ccc(NC(=O)Nc4ccc(Cl)c(C(F)(F)F)c4)cc3)c(F)cn2)cn1 [Comparative example 3, 1-(4-chloro-3-(trifluoromethyl)phenyl)-3-(4-(2-(1-methyl-pyrazol-4-yl)-5-fluoro-pyridin-4-yl-oxy)phenyl)urea, reference compound]
IC50 (VEGFR2): 437 nM

Structure (SMILES): Cn1cc(-c2cc(Oc3ccc(NC(=O)Nc4ccc(Cl)c(C(F)(F)F)c4)cc3)c(Cl)cn2)cn1 [Comparative example 4, 1-(4-chloro-3-(trifluoromethyl)phenyl)-3-(4-(2-(1-methyl-pyrazol-4-yl)-5-chloro-pyridin-4-yl-oxy)phenyl)urea, reference compound]
IC50 (VEGFR2): 20500 nM

Structure (SMILES): COc1cc(Oc2ccc(NC(=O)Nc3ccc(Cl)c(C(F)(F)F)c3)cc2)cc(-c2cnn(C)c2)n1 [Comparative example 5, 1-(4-chloro-3-(trifluoromethyl)phenyl)-3-(4-(2-(1-methyl-pyrazol-4-yl)-6-methoxy-pyridin-4-yl-oxy)phenyl)urea, reference compound]
IC50 (VEGFR2): 2390 nM

Structure (SMILES): CCN(CC)CCNC(=O)c1c(C)[nH]c(/C=C2\C(=O)Nc3ccc(F)cc32)c1C [Sunitinib]
Tumor weight Mean ± S.E ([1]; 40 mg/kg po): 0.1825 ± 0.0213 g
Tumor-inhibiting rate ([1]; 40 mg/kg po): 80.49%
Tumor weight Mean ± S.E ([2]; 40 mg/kg Ig): 0.3890 ± 0.0453 g
Tumor-inhibiting rate ([2]; 40 mg/kg Ig): 60.80%

Next, values leading:

IC50 (VEGFR2): 222 nM
inhibitory activity as fold of that of Sorafenib (VEGFR2; VEGFR2 kinase): 1.5 fold
IC50 value as fold of that of Comparative compound 2 (VEGFR2; VEGFR2 kinase): comparable
IC50 value as fold of that of Sorafenib (free base) (VEGFR2; VEGFR2 kinase): 2.5 fold
Structure (SMILES): Cn1cc(-c2nccc(Oc3ccc(NC(=O)Nc4ccc(Cl)c(C(F)(F)F)c4)c(F)c3)c2Cl)cn1 [Example 3, 1-(4-chloro-3-(trifluoromethyl)phenyl)-3-(4-(3-chloro-2-(1-methyl-pyrazol-4-yl)-pyridin-4-yl-oxy)-2-fluorophenyl)urea]

IC50 (VEGFR2): 68.5 nM
inhibitory activity as fold of that of Comparative compound 2 (VEGFR2; VEGFR2 kinase): 2.7 fold
inhibitory activity as fold of that of Sorafenib (VEGFR2; VEGFR2 kinase): 1.3 fold
IC50 value as fold of that of Comparative compound 2 (VEGFR2; VEGFR2 kinase): 0.36 fold
IC50 value as fold of that of Sorafenib (free base) (VEGFR2; VEGFR2 kinase): 0.75 fold
Structure (SMILES): Cn1cc(-c2nccc(Oc3ccc(NC(=O)Nc4ccc(Cl)c(C(F)(F)F)c4)cc3)c2C#N)cn1 [Example 4, 1-(4-chloro-3-(trifluoromethyl)phenyl)-3-(4-(3-cyano-2-(1-methyl-pyrazol-4-yl)-pyridin-4-yl-oxy)phenyl)urea]

IC50 (VEGFR2): 317 nM
Structure (SMILES): Cc1c(Oc2ccc(NC(=O)Nc3ccc(Cl)c(C(F)(F)F)c3)cc2)ccnc1-c1cnn(C)c1 [Example 5, 1-(4-chloro-3-(trifluoromethyl)phenyl)-3-(4-(3-methyl-2-(1-methyl-pyrazol-4-yl)-pyridin-4-yl-oxy)phenyl)urea]

IC50 (VEGFR2): 215 nM
Structure (SMILES): Cn1cc(-c2nccc(Oc3ccc(NC(=O)Nc4ccc(Cl)c(C(F)(F)F)c4)cc3)c2N)cn1 [Example 6, 1-(4-chloro-3-(trifluoromethyl)phenyl)-3-(4-(3-amino-2-(1-methyl-pyrazol-4-yl)-pyridin-4-yl-oxy)phenyl)urea]

IC50 (VEGFR2): 656 nM
Structure (SMILES): CNc1c(Oc2ccc(NC(=O)Nc3ccc(Cl)c(C(F)(F)F)c3)cc2)ccnc1-c1cnn(C)c1 [Example 7, 1-(4-chloro-3-(trifluoromethyl)phenyl)-3-(4-(3-methylamino-2-(1-methyl-pyrazol-4-yl)-pyridin-4-yl-oxy)phenyl)urea]

IC50 (VEGFR2): 417 nM
Structure (SMILES): COc1c(Oc2ccc(NC(=O)Nc3ccc(Cl)c(C(F)(F)F)c3)cc2)ccnc1-c1cnn(C)c1 [Example 8, 1-(4-chloro-3-(trifluoromethyl)phenyl)-3-(4-(3-methoxy-2-(1-methyl-pyrazol-4-yl)-pyridin-4-yl-oxy)phenyl)urea]
